Key:
KLF5 = KLF5 suppression, mRNA (quantitative real-time PCR) in cardiac tissue, I/R mice; format: in vivo, mouse (C57BL/6)
Method: (§1) The myocardial ischemia/reperfusion surgical protocol was applied as follows. Mice were anesthetized with 2% isoflurane inhalation until anesthesia was achieved. The animals' body temperature was maintained at 37 °C throughout the surgical procedure using a heating pad. A tracheal tube was placed via tracheal intubation and the respiration rate was set at 150 strokes/min with a tidal volume of 200 μL, using Minivent ventilator for mice (Model 845, Harvard Apparatus). A 1.2 cm incision was made over the left chest. After retraction of the pectoral major and minor muscles, the fourth intercostal space was exposed. […] The mouse was then monitored during the recovery period, which was generally completed within 3 to 5 minutes. […]
(§2) Total RNA was purified from heart tissue using the TRIzol reagent according to the instructions of the manufacturer (ThermoFischer Scientific, Cat. No.: 15596018). cDNA synthesis was performed using the Applied Biosystems High Capacity cDNA Reverse Transcription Kit (ThermoFischer Scientific, Cat. No.: 4368814) from 500 ng RNA, which had been treated with DNAase I (ThermoFischer Scientific, Cat. No.: 18068015). Quantitative real-time PCR was performed with the SYBR Select Master Mix (ThermoFischer Scientific, Cat. No.: 4472903) using the manufacturer's recommendations. […]

NOX4 = NOX4 protein in myocardium after I/R (Western blot); format: in vivo, mouse (C57BL/6); details: ML264 treatment, 30 min ischemia, 2 h reperfusion
Method: The myocardial ischemia/reperfusion surgical protocol was applied as follows. Mice were anesthetized with 2% isoflurane inhalation until anesthesia was achieved. The animals' body temperature was maintained at 37 °C throughout the surgical procedure using a heating pad. A tracheal tube was placed via tracheal intubation and the respiration rate was set at 150 strokes/min with a tidal volume of 200 μL, using Minivent ventilator for mice (Model 845, Harvard Apparatus). A 1.2 cm incision was made over the left chest. After retraction of the pectoral major and minor muscles, the fourth intercostal space was exposed. […] The left anterior descending coronary artery (LAD) was then located, sutured, and ligated at a site 3-4 mm distal to the origin of the artery under the left atrium using a 6-0 silk suture. […] The mouse was then monitored during the recovery period, which was generally completed within 3 to 5 minutes. […]
Isolated myocardial tissue/isolated primary murine cardiomyocytes were homogenized in radioimmunoprecipitation assay buffer (RIPA buffer) containing protease and phosphatase inhibitors (Thermo Fischer Scientific, Cat. No.: A32959). […] Relative densitometry was determined, and the β-actin protein was used as a loading control.
In order to unravel the mechanisms of KLF5-mediated cardiotoxicity, oxidative stress levels were evaluated at early reperfusion. […]

Ugp = Ugp mRNA expression after I/R; format: in vivo, mouse; details: ML-264 treatment
Method: as §1, §2

[1] = tested on: myocardial ischemia-reperfusion injury in mice; assay: Infarct size evaluation upon Evans Blue/TTC staining after myocardial I/R; format: in vivo, mouse (C57BL/6); details: ML264 25 mg/kg/12 h intraperitoneal; 30 min ischemia, 24 h reperfusion; vs vehicle
Method: The myocardial ischemia/reperfusion surgical protocol was applied as follows. Mice were anesthetized with 2% isoflurane inhalation until anesthesia was achieved. The animals' body temperature was maintained at 37 °C throughout the surgical procedure using a heating pad. A tracheal tube was placed via tracheal intubation and the respiration rate was set at 150 strokes/min with a tidal volume of 200 μL, using Minivent ventilator for mice (Model 845, Harvard Apparatus). A 1.2 cm incision was made over the left chest. After retraction of the pectoral major and minor muscles, the fourth intercostal space was exposed. […] The left anterior descending coronary artery (LAD) was then located, sutured, and ligated at a site 3-4 mm distal to the origin of the artery under the left atrium using a 6-0 silk suture. The heart was allowed to stabilize for 15 min and right after, ischemia was induced by tightening the suture against a small piece of polyethylene tube. At the end of the 30-minute ischemia period, the ligature was released for the induction of reperfusion, and then the manual evacuation of air and closure of muscle and skin were performed. The mouse was then monitored during the recovery period, which was generally completed within 3 to 5 minutes. Sustain-released buprenorphine (BupSR, 0.5 mg/kg body weight) was provided by subcutaneous injection. Mice were then left to recover until the end of the reperfusion (2 hours, 12 hours, 24 hours, or 4 weeks). The sham group underwent the same surgical procedure except that the LAD was not occluded.
Double staining of the heart with Evans Blue dye and Triphenyl-Tetrazolium Chloride (TTC) solution was employed for infarct size measurements. Mice were anesthetized upon 3% isoflurane inhalation. The thorax was cut and opened, and hearts were gently excised. Then, the aorta was cannulated and perfused with 5 mL of normal saline. The suture was re-tightened and Evans Blue solution (2.5% in WFI) was slowly infused through the aorta, to differentiate the ischemic part of the myocardium from the non-occluded, normally perfused area. The hearts were sliced into 1-2 mm sections immediately following. The heart slices were incubated with TTC solution (1% in PBS, pH=7.4) at 37 °C for 20 min. In this way, the necrotic area is delimited as a white area, while the viable tissue is stained red. […] The overall size of each slice (All/A), the area-at-risk (R), and the infarct area (I) were determined in a blinded manner for each slice using ImageJ software, and the percentages of Area at Risk (R/A) % and I/R % were calculated. […]
Administration of these two compounds was performed 5 minutes before the reopening of the coronary artery and infarct size was assessed upon 30 minutes of ischemia followed by 24 hours of reperfusion therapy.

IL-1β = IL-1β mRNA in ischemic myocardium; format: in vivo, mouse (C57BL/6); details: evaluated at 2 h and 24 h of reperfusion, vs vehicle
Method: as §1, §2

Glut4 = Glut4 mRNA after I/R; format: in vivo, mouse; details: ML-264 treatment; vs I/R group treated with vehicle
Method: as §1, §2

CN(C(=O)CNC(=O)/C=C/c1cccc(Cl)c1)C1CCS(=O)(=O)CC1 [ML264]
KLF5 mRNA levels (4 weeks) (KLF5; 4 weeks post-ischemia-reperfusion, among the four groups): unchanged | KLF5 mRNA expression level in cardiac tissue (KLF5; 30 minutes of ischemia, ML264 25 mg/kg/12 h intraperitoneal): suppression was confirmed | NOX4 protein levels (NOX4): suppressed | NOX4 levels (NOX4; FIG. 5C-5E (mRNA and protein)): significant suppression | relative mRNA expression of Ugp (Ugp): did not result in a change | infarct size [1]: significant reduction | IL-1β mRNA levels (IL-1β): Significant suppression | Glut4 mRNA levels (Glut4): significant suppression

From patent publication US20260335279A1, “METHODS OF TREATING ISCHEMIA-REPERFUSION INJURIES” (University of Cincinnati, priority 2022, published 2026)
